Measurements taken from US20250269039A1, “THERAPEUTIC-OLIGONUCLEOTIDES ACTIVATED BY NUCLEASES” (priority 2020, published 2025).
Values after ≈ are worked out from the molar mass of the structure shown. Where two headings read alike, the source gives them in different places.

Assays:
[1] = test system: S. aureus NCTC 12493 (MRSA); assay: Broth microdilution MIC and growth inhibition; format: cell-based, Staphylococcus aureus; conditions: for MIC: Staphylococcus aureus; for % Growth inhibition: mean ± SD, n = 3
Text: (§1) Bacteria strains. S. aureus NCTC 12493 (MRSA), S. aureus ATCC 29213 (MSSA), S. aureus ATCC 43300 (MRSA), S. aureus ATCC 1707 (MRSA), S. aureus ATCC 1717 (MRSA), S. aureus ATCC 1747 (MRSA), S. aureus ATCC 1761 (MRSA), S. aureus ATCC 1766 (MRSA), S. aureus ATCC 1768 (MRSA), S. epidermidis ATCC 35984, E. coli ATCC 25922, K. pneumoniae ATCC 13883, P. mirabilis ATCC 25933, S. enterica ATCC 14028 and P. aeruginosa ATCC 10145 strains were used in this study. Bacteria were initially inoculated onto tryptone soy agar with 5% defibrinated sheep blood (Thermo Fisher Scientific, Inc., Waltham, MA, USA) and incubated at 37° C. for 24 hours. Then, single colonies of each strain were transferred to tryptone soy broth (Thermo Fisher Scientific) for the nuclease activity assay or antimicrobial susceptibility testing, respectively.
(§2) Antimicrobial susceptibility testing. Minimal inhibitory concentrations (MIC) of all nucleoside analogues and TOUCANs against each bacteria strain were determined using broth microdilution method. A single colony obtained from overnight culture on tryptone soy agar with 5% defibrinated sheep blood was inoculated in cation-adjusted Mueller Hinton Broth and adjusted to 10^6 CFU/mL. TOUCANs were prepared in PBS+/+ (treatment) and serial dilutions were made in 96-well polystyrene round bottom microwell plates with 50 μL final volume for each concentration. PBS+/+ was used as untreated control. Next, 50 μL bacteria solutions were added to each well to a final bacteria concentration of 5×10^5 CFU/mL. Plates were incubated at 37° C. in Cytation 1 Cell Imaging Multimode Reader. Growth curves were obtained by measuring optical densities at 600 nm every 10 minutes for 18 hours using Cytation 1 Cell Imaging Multimode Reader. In addition, visual inspection of the plates was carried out after 18 hours and photographs were taken. MICs were defined as the lowest drug concentration in the microwell at which bacterial growth was not visible at the end of the incubation period. Besides MIC determination, specificity of TOUCAN 7mGe was also shown with subcultures on chromogenic media. For this purpose, 5 μL of different concentrations of each strain were inoculated onto CHROM agar Orientation Media (Becton Dickinson) and the bacterial growth of each bacteria strain tested was observed by naked eye after incubation at 37° C. for 24 hours. Finally, photographs of the chromogenic media were taken.

[2] = test system: S. aureus ATCC 29213 (MSSA); assay: Broth microdilution MIC and growth inhibition; format: cell-based, Staphylococcus aureus; conditions: for MIC: Staphylococcus aureus; for % Growth inhibition: mean ± SD, n = 3
Text: as §1, §2

[3] = test system: S. aureus; assay: Growth inhibition curves / MICs in S. aureus cultures (strain not named or summary over strains); format: cell-based, Staphylococcus aureus; conditions: Staphylococcus aureus
Description: as §2

[4] = test system: P. mirabilis ATCC 25933; assay: Broth microdilution MIC and growth inhibition (control bacteria); format: cell-based, Proteus mirabilis; conditions: Proteus mirabilis, ATCC25933, 18 h, TOUCAN as NA equivalent, read-out: MIC
Text: as §1, §2

[5] = test system: K. pneumoniae ATCC 13883; assay: as above; format: cell-based; conditions: Klebsiella pneumoniae, ATCC13883, 18 h, TOUCAN as NA equivalent, read-out: MIC
Text: as §1, §2

[6] = test system: P. aeruginosa ATCC 10145; assay: as above; format: cell-based; conditions: Pseudomonas aeruginosa, ATCC10145, 18 h, TOUCAN as NA equivalent, read-out: MIC
Text: as §1, §2

[7] = test system: S. enterica ATCC 14028; assay: as above; format: cell-based; conditions: Salmonella enterica, ATCC14028, 18 h, TOUCAN as NA equivalent, read-out: MIC
Text: as §1, §2

[8] = test system: Breast cancer cells (MDAMB231); assay: Anti-cancer drug susceptibility testing, breast cancer cells, 72 h; format: cell-based; conditions: 72 h of treatment; Gemcitabine alone, TOUCAN 7mGe spiked with MN; FIG. 14
Description: (§3) Anti-cancer drug susceptibility testing for TOUCAN 7mGe. Gemcitabine and equivalent 7mGe solutions were prepared as explained before. Then, 7mGe was pre-exposed to 10 μl of 10 U MN for 1 hour at 37° C. (7mGe+MN). 100 μl of both drugs (Gemcitabine and 7mGe+MN) were added to the related wells and serially diluted using PBS+/+making the final concentrations between 100-2 μg/μl. Breast cancer cells (MDAMB231) and Pancreatic cancer cells (ASPC-1) were prepared as 10.000 cells/ml and 100 μl cell suspensions were added to each well. The plate was incubated at 37° C. for 72 hours. At 48th hour of incubation, 100 μl CyQUANT® Direct Cell Proliferation Assay kit was added to each well. Cell counts and images were taken at the end of 72 hours incubation period using Cytation 1 Cell Imaging Multi-Mode Reader.

[9] = test system: E. coli ATCC 25922; assay: Broth microdilution MIC and growth inhibition (control bacteria); format: cell-based, Escherichia coli; conditions: Escherichia coli, ATCC25922, 18 h, TOUCAN as NA equivalent, read-out: MIC
Text: as §1, §2

[10] = test system: S. aureus ATCC 1768 (MRSA); assay: Broth microdilution MIC and growth inhibition; format: cell-based, Staphylococcus aureus; conditions: Staphylococcus aureus, 18 h, TOUCAN as NA equivalent, read-out: MIC
Text: as §1, §2

[11] = test system: S. aureus ATCC 1707 (MRSA); assay: Broth microdilution MIC and growth inhibition; format: cell-based, Staphylococcus aureus; conditions: Staphylococcus aureus, 18 h, TOUCAN as NA equivalent, read-out: MIC
Text: as §1, §2

[12] = test system: S. aureus ATCC 1766 (MRSA); assay: Broth microdilution MIC and growth inhibition; format: cell-based, Staphylococcus aureus; conditions: Staphylococcus aureus; S. aureus ATCC 1766 (MRSA); 18 h; TOUCAN as NA equivalent; read-out: MIC
Text: as §1, §2

[13] = test system: S. aureus ATCC 1761 (MRSA); assay: Broth microdilution MIC and growth inhibition; format: cell-based, Staphylococcus aureus; conditions: Staphylococcus aureus, 18 h, TOUCAN as NA equivalent, read-out: MIC
Text: as §1, §2

[14] = test system: S. aureus ATCC 1717 (MRSA); assay: Broth microdilution MIC and growth inhibition; format: cell-based, Staphylococcus aureus; conditions: Staphylococcus aureus, 18 h, TOUCAN as NA equivalent, read-out: MIC
Text: as §1, §2

[15] = test system: S. aureus ATCC 43300 (MRSA); assay: Broth microdilution MIC and growth inhibition; format: cell-based, Staphylococcus aureus; conditions: Staphylococcus aureus, 18 h, TOUCAN as NA equivalent, read-out: MIC
Text: as §1, §2

[16] = test system: S. aureus ATCC 1747 (MRSA); assay: Broth microdilution MIC and growth inhibition; format: cell-based, Staphylococcus aureus; conditions: Staphylococcus aureus, 18 h, TOUCAN as NA equivalent, read-out: MIC
Text: as §1, §2

[17] = test system: S. epidermidis ATCC 35984; assay: Broth microdilution MIC and growth inhibition (control bacteria); format: cell-based, Staphylococcus epidermidis; conditions: Staphylococcus epidermidis, ATCC35984; S. epidermidis ATCC 35984; 18 h; TOUCAN as NA equivalent; read-out: MIC
Text: as §1, §2

[18] = test system: Pancreatic cancer cells (ASPC-1); assay: Anti-cancer drug susceptibility testing, pancreatic cancer cells, 72 h; format: cell-based; conditions: 72 h cultures; Gemcitabine alone, TOUCAN 7mGe spiked with MN; FIG. 13
Description: as §3

[19] = Table 1, S. aureus NCTC 12493, read-out: MIC
[20] = Table 1, S. aureus ATCC 29213, read-out: MIC

## Nc1ccn([C@@H]2O[C@H](CO)[C@@H](O)[C@@H]2O)c(=O)n1 [Cytarabine]
[1]; [19]
  MIC: > 40000 ng/mL
[1]; Table 1, S. aureus NCTC 12493
  % Growth inhibition: 39.4 ± 2.5%
[2]; [20]
  MIC: > 40000 ng/mL
[2]; Table 1, S. aureus ATCC 29213
  % Growth inhibition: 16.3 ± 6.9%

## Nc1ccn([C@@H]2O[C@H](CO)[C@@H](O)C2(F)F)c(=O)n1 [Gemcitabine, reference compound]
[3]; read-out: MIC values over all S. aureus strains tested
  MIC: 4 to 16 ng/mL (≈ 0.0152 to 0.0608 µM)
[3]; S. aureus, strain not given, read-out: MIC
  MIC: 4 ng/mL (≈ 0.0152 µM)
[4]
  MIC: > 40000 ng/mL
[5]
  MIC: > 40000 ng/mL
[6]
  MIC: > 40000 ng/mL
[7]
  MIC: > 40000 ng/mL
[8]
  therapeutic effect in breast cancer cells (viability): clear therapeutic effect
[9]
  MIC: > 40000 ng/mL
[10]
  MIC: 8 ng/mL
[11]
  MIC: 8 ng/mL
[12]
  MIC: 8 ng/mL
[1]; S. aureus NCTC 12493 (MRSA), 18 h, TOUCAN as NA equivalent, read-out: MIC
  MIC: 4 ng/mL
[1]; [19]
  MIC: 4 ng/mL (≈ 0.0152 µM)
[1]; Table 1, S. aureus NCTC 12493
  % Growth inhibition: 93.7 ± 0.2%
[13]
  MIC: 16 ng/mL
[14]
  MIC: 8 ng/mL
[15]
  MIC: 4 ng/mL
[16]
  MIC: 8 ng/mL
[2]; S. aureus ATCC 29213 (MSSA), 18 h, TOUCAN as NA equivalent, read-out: MIC
  MIC: 4 ng/mL
[2]; [20]
  MIC: 4 ng/mL (≈ 0.0152 µM)
[2]; Table 1, S. aureus ATCC 29213
  % Growth inhibition: 94.2 ± 0.04%
[17]
  MIC: 2 ng/mL
[18]
  killing of pancreatic cancer cells (viability): efficient in killing

## O=c1[nH]c(=O)n([C@H]2C[C@H](O)[C@@H](CO)O2)cc1I [Idoxuridine]
[1]; [19]
  MIC: > 40000 ng/mL
[1]; Table 1, S. aureus NCTC 12493
  % Growth inhibition: 46.0 ± 0.6%
[2]; [20]
  MIC: > 40000 ng/mL
[2]; Table 1, S. aureus ATCC 29213
  % Growth inhibition: 13.4 ± 3.4%

## O=c1[nH]c(=O)n([C@H]2C[C@H](O)[C@@H](CO)O2)cc1C(F)(F)F [Trifluridine]
[1]
  MIC: 10000 ng/mL (≈ 33.8 µM)
[1]; Table 1, S. aureus NCTC 12493
  % Growth inhibition: 88.5 ± 1.1%
[2]
  MIC: 10000 ng/mL (≈ 33.8 µM)
[2]; Table 1, S. aureus ATCC 29213
  % Growth inhibition: 89.0 ± 5.1%

## Nc1ncnc2c1ncn2[C@@H]1O[C@H](CO)[C@@H](O)[C@@H]1O [Vidarabine]
[1]; [19]
  MIC: 40000 ng/mL (≈ 150 µM)
[1]; Table 1, S. aureus NCTC 12493
  % Growth inhibition: 85.1 ± 0.8%
[2]; [20]
  MIC: > 40000 ng/mL
[2]; Table 1, S. aureus ATCC 29213
  % Growth inhibition: 34.1 ± 0.8%
